Values quoted from earlier work in patent US10894072B2, “Compositions and methods for treating fibromyalgia” (Quality IP Holdings, LLC, priority 2017, dated 2021).

Assays:
hGH = settings: for Increase in hGH: other amino acids
IGF-1 and IGF-BP3 = settings: patients with fibromyalgia, 4 days treatment
fibromyalgia [1] = system: fibromyalgia
fibromyalgia [2] = system: fibromyalgia; remark: listed apart in the source
fibromyalgia [3] = system: fibromyalgia; remark: listed apart in the source
[4] = subcutaneous injection of 0.06 IU, hGH deficient subjects
[5] = hGH-deficient adults, within months of treatment

N=C(N)NCCC[C@H](N)C(=O)O [arginine]
Elevation of serum hGH levels (hGH; 30 g, males): 8.6 fold
Increase of hGH levels (hGH; intravenous infusion of 183 mg/kg body weight, females): > 20 fold

N[C@@H](Cc1c[nH]cn1)C(=O)O [histidine]
Increase in hGH (hGH): marked increases

NCCCC[C@H](N)C(=O)O [lysine]
Increase in hGH (hGH): marked increases

CSCC[C@H](N)C(=O)O [methionine]
Increase in hGH (hGH): marked increases

NCCC[C@H](N)C(=O)O [ornithine]
Increase in hGH (hGH): marked increases

N[C@@H](Cc1ccccc1)C(=O)O [phenylalanine]
Increase in hGH (hGH): marked increases

hGH: human growth hormone, given by injection in cited studies
Plasma IGF-1 and IGF-BP3 levels (IGF-1 and IGF-BP3): increase
FIQ score and tender point score over the placebo group (fibromyalgia [1]; at nine months): significant improvement
IGF-1 levels (fibromyalgia [1]; daily hGH injections): prompt and sustained increase
Pain (fibromyalgia [2]; hGH added to standard treatment, sustained action over time): effective in reducing pain
FIQ scores compared with placebo group (fibromyalgia [2]; low-dose hGH added to standard treatment): significantly improved
Reduction in the mean number of tender points (pairs) compared to the control group (fibromyalgia [3]; end of one-year study, subcutaneous hGH added to standard therapy): 60%
Tolerability (fibromyalgia [3]; human, in vivo): well tolerated
Mean levels of hGH reached [4]: 0.4 ng/mL
Lean body mass, skin thickness and muscle mass [5]: gains
